From patent US20140171431A1, “AZOLE HETEROCYCLIC COMPOUND, PREPARATION METHOD, PHARMACEUTICAL COMPOSITION AND USE” (priority 2011, published 2014)
Read-outs that look alike come from different tables or passages of the source.

Tests used:
Lp-PLA2 in rabbit serum = biological target: T1, Lp-PLA2 in rabbit serum (Oryctolagus cuniculus, UniProt G1SE06); test: In vitro inhibitory activity towards the enzyme Lp-PLA2 in rabbit serum, [3H]PAF substrate; assay type: biochemical; details: for inhibition at 0.1 µM: 100 nM
T1 construct: from tissue; host or cells: rabbit serum
T1 sequence (G1SE06 22-423): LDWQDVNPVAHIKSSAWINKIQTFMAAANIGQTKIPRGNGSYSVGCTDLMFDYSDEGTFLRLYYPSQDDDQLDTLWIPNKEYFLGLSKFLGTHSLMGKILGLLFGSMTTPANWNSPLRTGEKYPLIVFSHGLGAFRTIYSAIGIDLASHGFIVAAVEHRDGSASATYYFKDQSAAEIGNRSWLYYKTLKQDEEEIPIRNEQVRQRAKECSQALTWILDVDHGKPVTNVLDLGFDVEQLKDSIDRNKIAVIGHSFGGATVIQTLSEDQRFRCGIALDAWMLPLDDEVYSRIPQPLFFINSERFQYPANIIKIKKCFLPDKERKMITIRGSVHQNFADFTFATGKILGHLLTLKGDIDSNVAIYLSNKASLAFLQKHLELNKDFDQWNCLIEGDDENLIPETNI
Protocol: (§1) The activities of compounds were measured using [^3H] labeled platelet activating factor ([^3H]PAF, Perkinelmer, Lot NET910) as the substrate. The reaction was carried out in a system containing 50 mmol/L HEPES and 150 mmol/L NaCl (pH 7.4) in a total volume of 200 μl. First, 10 μL rabbit serum and 10 μl DMSO solution of the test compound were added to the system and preincubated for 10 min at 37° C. Then 20 nM [^3H]PAF was added as listed in table 1 to start the reaction and incubated for a further 10 min at 37° C. After that, 600 μl of CHCl3/MeOH (2:1) was added and the resulting mixture was vortex mixed and the reaction was stopped. After settled for a while, the mixture was centrifugated at 12000×g for 15 min. The supernatant was transferred to a new tube and 200 μl of CHCl3 was added. The mixture was mixed by vortexing and then settled or centrifugated for 2 min. A 100 μl portion of the supernatant was then collected for radioactivity intensity measurement.
The inhibition rate was determined by the following equation:
Inhibitory rate (%)=1−(DPMcompound tube−DPMblank tube)/(DPMcontrol tube−DPMblank tube)*100%
(Note: DPM is radioactivity intensity unit.)

Lp-PLA2 in human serum = biological target: T2, Lp-PLA2 in human serum (Homo sapiens, UniProt Q13093); test: In vitro inhibitory activity towards the enzyme Lp-PLA2 in human serum, [3H]PAF substrate; assay type: biochemical; details: for inhibition at 0.01 µM: 10 nM; for inhibition at 0.1 µM: 100 nM
T2 construct: from tissue
T2 sequence (Q13093 22-441): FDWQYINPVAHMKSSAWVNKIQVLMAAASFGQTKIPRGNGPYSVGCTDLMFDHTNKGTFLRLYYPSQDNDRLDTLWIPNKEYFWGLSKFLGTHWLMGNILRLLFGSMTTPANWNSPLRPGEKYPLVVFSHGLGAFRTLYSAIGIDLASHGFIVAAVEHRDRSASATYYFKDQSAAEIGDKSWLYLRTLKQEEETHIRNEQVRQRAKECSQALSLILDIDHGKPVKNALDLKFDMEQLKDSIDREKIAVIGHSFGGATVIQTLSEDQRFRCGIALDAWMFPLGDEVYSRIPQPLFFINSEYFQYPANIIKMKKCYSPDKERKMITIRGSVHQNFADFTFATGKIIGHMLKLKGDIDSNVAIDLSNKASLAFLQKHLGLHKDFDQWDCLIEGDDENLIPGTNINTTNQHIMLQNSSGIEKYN
Protocol: as §1, with “mmol/l” for “mmol/L”, “human plasma” for “rabbit serum”, “was” for “was vortex”, “with vortex.” for “and the reaction was stopped.”, “added and mixed by vortexing.” for “added.”, “was” for “was mixed by vortexing and then”

[1] = rabbit serum, read-out: inhibition, %
[2] = read-out: inhibitory rate towards the rabbit serum derived Lp-PLA2 enzyme
[3] = human serum, read-out: inhibition, %
[4] = read-out: inhibitory rate towards the human serum derived Lp-PLA2 enzyme

Compound | inhibition at 0.1 µM (Lp-PLA2 in rabbit serum; [1]) | inhibition at 0.1 µM (Lp-PLA2 in rabbit serum; [2]) | inhibition at 0.01 µM (Lp-PLA2 in human serum; [3]) | inhibition at 0.01 µM (Lp-PLA2 in human serum; [4]) | inhibition at 0.1 µM (Lp-PLA2 in human serum; human serum) | inhibition at 1 µM (Lp-PLA2 in rabbit serum; rabbit serum) | inhibition at 10 µM (Lp-PLA2 in rabbit serum; rabbit serum)
CCN1CCCC1CNCc1nnc(Cn2c(SCc3ccc(F)cc3)nc(=O)c3c2CCC3)n1Cc1ccc(-c2ccc(C(F)(F)F)cc2)cc1 (racemic) [Example 83, (±)-1-((5-(((1-ethylpyrrolidin-2-yl)methylamino)methyl)-4-((4′-(trifluoromethyl)biphenyl-4-yl)methyl)-4H-1,2,4-triazol-3-yl)methyl)-2-(4-fluorobenzylthio)-6,7-dihydro-1H-cyclopenta[d]pyrimidin-4(5H)-one] | 93% | > 90% | 81% | > 80% | 95% |  | 
CCN(CC)Cc1cnc(Cn2c(SCc3ccc(F)cc3)nc(=O)c3c2CCC3)n1Cc1ccc(-c2ccc(C(F)(F)F)cc2)cc1 [Example 42, 1-((5-((diethylamino)methyl)-1-((4′-(trifluoromethyl)biphenyl-4-yl)methyl)-1H-imidazol-2-yl)methyl)-2-(4-fluorobenzylthio)-6,7-dihydro-1H-cyclopenta[d]pyrimidin-4(5H)-one] | 88.3% |  | 75% |  | 92% | 97.7% | 
O=c1nc(SCc2ccc(F)cc2)n(Cc2ncc(CN3CCCC3)n2Cc2ccc(-c3ccc(C(F)(F)F)cc3)cc2)c2c1CCC2 [Example 43, 2-(4-fluorobenzylthio)-1-((5-(pyrrolidin-1-ylmethyl)-1-((4′-(trifluoromethyl)biphenyl-4-yl)methyl)-1H-imidazol-2-yl)methyl)-6,7-dihydro-1H-cyclopenta[d]pyrimidin-4(5H)-one] | 78.6% |  | 67% |  | 92% |  | 
CN(Cc1ccc(F)cc1)Cc1cnc(Cn2c(SCc3ccc(F)cc3)nc(=O)c3c2CCC3)n1Cc1ccc(-c2ccc(C(F)(F)F)cc2)cc1 [Example 44] | 89.1% |  | 69% |  | 95% |  | 
O=c1nc(SCc2ccc(F)cc2)n(Cc2ncc(CN3CCN(Cc4ccccc4)CC3)n2Cc2ccc(-c3ccc(C(F)(F)F)cc3)cc2)c2c1CCC2 [Example 45, 1-((5-((4-benzylpiperazin-1-yl)methyl)-1-((4′-(trifluoromethyl)biphenyl-4-yl)methyl)-1H-imidazol-2-yl)methyl)-2-(4-fluorobenzylthio)-6,7-dihydro-1H-cyclopenta[d]pyrimidin-4(5H)-one] | 87% |  | 56% |  | 90% |  | 
CN(C)Cc1cnc(Cn2c(SCc3ccc(F)cc3)nc(=O)c3c2CCC3)n1Cc1ccc(-c2ccc(C(F)(F)F)cc2)cc1 [Example 46, 1-((5-((dimethylamino)methyl)-1-((4′-(trifluoromethyl)biphenyl-4-yl)methyl)-1H-imidazol-2-yl)methyl)-2-(4-fluorobenzylthio)-6,7-dihydro-1H-cyclopenta[d]pyrimidin-4(5H)-one] | 87.1% |  | 75% |  | 89% | 97.2% | 
C[N+](C)(Cc1ccc(F)cc1)Cc1cnc(Cn2c(SCc3ccc(F)cc3)nc(=O)c3c2CCC3)n1Cc1ccc(-c2ccc(C(F)(F)F)cc2)cc1 [Example 47, N-(4-fluorobenzyl)-1-(2-((2-(4-fluorobenzylthio)-4-oxo-4,5,6,7-tetrahydro-1H-cyclopenta[d]pyrimidin-1-yl)methyl)-1-((4′-(trifluoromethyl)biphenyl-4-yl)methyl)-1H-imidazol-5-yl)-N,N-dimethylmethanaminium bromide] | 96.9% | > 90% | 93% | > 80% | 99% | 98.6% | 
O=c1nc(SCc2ccc(F)cc2)n(Cc2ncc(C[N+]3(Cc4ccc(F)cc4)CCCC3)n2Cc2ccc(-c3ccc(C(F)(F)F)cc3)cc2)c2c1CCC2 [Example 49, 1-(4-fluorobenzyl)-1-(2-((2-(4-fluorobenzylthio)-4-oxo-4,5,6,7-tetrahydro-1H-cyclopenta[d]pyrimidin-1-yl)methyl)-1-((4′-(trifluoromethyl)biphenyl-4-yl)methyl)-1H-imidazol-5-yl)methyl)pyrrolidinium bromide] |  |  | 97% | > 80% | 98% |  | 
O=c1nc(SCc2ccc(F)cc2)n(Cc2nc3ccccc3n2Cc2ccc(-c3ccc(C(F)(F)F)cc3)cc2)c2c1CCC2 [Example 53, 2-(4-fluorobenzylthio)-1-((1-((4′-(trifluoromethyl)biphenyl-4-yl)methyl)-1H-benzo[d]imidazol-2-yl)methyl)-6,7-dihydro-1H-cyclopenta[d]pyrimidin-4(5H)-one] | 43.2% |  |  |  |  | 90.1% | 
Cn1cc(Cc2cn(Cc3nc4ccccc4n3Cc3ccc(-c4ccc(C(F)(F)F)cc4)cc3)c(SCc3ccc(F)cc3)nc2=O)cn1 [Example 54, 2-(4-fluorobenzylthio)-5-((1-methyl-1H-pyrazol-4-yl)methyl)-1-((1-((4′-(trifluoromethyl)biphenyl-4-yl)methyl)-1H-benzo[d]imidazol-2-yl)methyl)pyrimidin-4 (1H)-one] | 35.9% |  |  |  |  | 88.8% | 
CCn1c(Cn2c(SCc3ccc(F)cc3)nc(=O)c3c2CCC3)nnc1-c1ccc(-c2ccc(C(F)(F)F)cc2)cc1 [Example 55, 1-((4-ethyl-5-(4′-(trifluoromethyl)biphenyl-4-yl)-4H-1,2,4-triazol-3-yl)methyl)-2-(4-fluorobenzylthio)-6,7-dihydro-1H-cyclopenta[d]pyrimidin-4(5H)-one] |  |  |  |  |  | 21% | 33.6%
CCn1c(Cn2cc(Cc3cnn(C)c3)c(=O)nc2SCc2ccc(F)cc2)nnc1-c1ccc(-c2ccc(C(F)(F)F)cc2)cc1 [Example 58, 1-((4-ethyl-5-(4′-(trifluoromethyl)biphenyl-4-yl)-4H-1,2,4-triazol-3-yl)methyl)-2-(4-fluorobenzylthio)-5-((1-methyl-1H-pyrazol-4-yl)methyl)pyrimidin-4 (1H)-one] |  |  |  |  |  | 32% | 94.8%
CCn1c(CCCc2ccccc2)nnc1Cn1c(SCc2ccc(F)cc2)nc(=O)c2c1CCC2 [Example 59, 1-((4-ethyl-5-(3-phenylpropyl)-4H-1,2,4-triazol-3-yl)methyl)-2-(4-fluorobenzylthio)-6,7-dihydro-1H-cyclopenta[d]pyrimidin-4(5H)-one] |  |  |  |  |  |  | 9.3%
CCn1c(Cc2ccc(-c3ccc(C(F)(F)F)cc3)cc2)nnc1Cn1c(SCc2ccc(F)cc2)nc(=O)c2c1CCC2 [Example 60, 1-((4-ethyl-5-((4′-(trifluoromethyl)biphenyl-4-yl)methyl)-4H-1,2,4-triazol-3-yl)methyl)-2-(4-fluorobenzylthio)-6,7-dihydro-1H-cyclopenta[d]pyrimidin-4(5H)-one] |  |  |  |  |  |  | 40%
CC(C)(C(=O)O)N1CCN(Cc2nnc(Cn3c(SCc4ccc(F)cc4)nc(=O)c4c3CCC4)n2Cc2ccc(-c3ccc(C(F)(F)F)cc3)cc2)CC1 [Example 89, 2-(4-((5-((2-(4-fluorobenzylthio)-4-oxo-4,5,6,7-tetrahydro-1H-cyclopenta[d]pyrimidin-1-yl)methyl)-4-((4′-(trifluoromethyl)biphenyl-4-yl)methyl)-4H-1,2,4-triazol-3-yl)methyl)piperazin-1-yl)-2-methylpropanoic acid] | 13.4% |  |  |  |  |  | 
